Results published in PubChem BioAssay (NCI).
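All cell lines were grown in 96-well plates and treated with compound for 48 hours. TGI is the concentration that stops growth completely.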

What was measured:
Assay in all cases: DTP human tumour cell line panel, 48 h
[1] = system: DU-145 prostate
[2] = system: SNB-19 CNS
[3] = system: A498 renal
[4] = system: LOX IMVI melanoma
[5] = system: HCT-116 colon
[6] = system: MOLT-4 leukemia
[7] = system: SK-MEL-2 melanoma
[8] = system: HCC-2998 colon
[9] = system: NCI-H23 lung
[10] = system: A549 NSCLC
[11] = system: 786-0 renal
[12] = system: OVCAR-5 ovarian
[13] = system: NCI-H522 lung
[14] = system: HT29 colon
[15] = system: HL-60(TB) leukemia
[16] = system: M14 melanoma
[17] = system: SF-268 CNS
[18] = system: SW-620 colon
[19] = system: HOP-92 NSCLC

Row | Compound | TGI [1] [µM] | TGI [2] [µM] | TGI [3] [µM] | TGI [4] [µM] | TGI [5] [µM] | TGI [6] [µM] | TGI [7] [µM] | TGI [8] [µM] | TGI [9] [µM] | TGI [10] [µM] | TGI [11] [µM] | TGI [12] [µM] | TGI [13] [µM] | TGI [14] [µM] | TGI [15] [µM] | TGI [16] [µM] | TGI [17] [µM] | TGI [18] [µM] | TGI [19] [µM]
1 | Cc1cn(C2CC(N=[N+]=[N-])C(COP(=O)(O)OCC3OC(n4cc(F)c(=O)[nH]c4=O)CC3O)O2)c(=O)[nH]c1=O (centres undefined) | > 100 | > 31.6 | > 100 | > 100 | > 100 | > 37.2 | > 100 | > 100 | > 79.7 | > 100 | > 100 | > 100 | > 100 | > 100 | > 100 | > 100 | > 100 | > 100 | –
2 | O=[N+]([O-])c1ccc(-c2nn3c(C45CC6CC(CC(C6)C4)C5)nnc3s2)c(Cl)c1 | > 100 | > 100 | > 100 | > 100 | > 100 | > 100 | > 100 | > 100 | > 100 | > 100 | > 100 | > 100 | > 100 | > 100 | > 100 | > 100 | > 100 | > 100 | > 100
3 | O=C1NCN(c2ccccc2)C12CCN(CC1COc3ccccc3O1)CC2 (centres undefined) | > 100 | 85.3 | > 100 | > 100 | > 100 | > 100 | > 100 | > 100 | > 100 | > 100 | > 100 | > 100 | > 100 | > 100 | > 100 | > 100 | > 100 | > 100 | –
4 | COc1ccc(-c2nc(Nc3ccccc3)sc2Cc2sc(Nc3ccccc3)nc2-c2ccc(OC)cc2)cc1 | > 100 | > 100 | > 100 | > 100 | > 100 | > 100 | – | > 100 | > 100 | > 100 | > 100 | > 100 | – | > 100 | 52 | – | > 100 | > 100 | –
5 | CC(C)(O)c1cc2c(cc1C(C)(C)O)-c1ccccc1-2 | > 100 | > 100 | > 100 | > 100 | – | > 100 | > 100 | > 100 | – | > 100 | > 100 | > 100 | > 100 | – | > 100 | > 100 | > 100 | > 100 | > 100
6 | CCOP(=O)(O)C(Nc1ccc(N=Nc2ccccc2)cc1)c1cccc(C(Nc2ccc(N=Nc3ccccc3)cc2)P(=O)(O)OCC)c1 (centres undefined) | > 100 | > 100 | 88.6 | 77.4 | > 100 | 60.5 | > 100 | 71.3 | > 100 | > 100 | > 100 | > 100 | > 100 | 40.9 | 69.7 | > 100 | > 100 | > 100 | > 100
7 | O=C1Cc2cn[nH]c2-c2ccccc2N1 | > 100 | > 100 | > 100 | 33.6 | > 83.5 | 49.7 | > 83.8 | 67.3 | > 100 | > 64.2 | > 100 | > 57.5 | 65.8 | > 100 | > 78.3 | > 55.2 | > 100 | 32.4 | > 30.7
8 | Cc1cc(O)c(/C=N/C(=S)Nc2ccc(S(N)(=O)=O)cc2)c(=O)o1 | > 100 | > 100 | > 100 | > 100 | > 100 | > 100 | > 100 | > 100 | > 100 | > 100 | > 100 | > 100 | – | > 100 | > 100 | > 100 | > 100 | > 100 | > 100
9 | COC(=O)C(=O)Nc1cc2c3c(c1)Oc1cccc4c1C3(C)c1c(cccc1O2)O4 | > 66.3 | > 100 | > 100 | > 100 | > 100 | > 100 | > 100 | > 100 | > 100 | > 100 | > 79.7 | > 100 | > 100 | > 40.6 | 14.2 | > 100 | > 100 | > 100 | > 100
10 | CC(C)(C)OC(=O)N1CCCC1C(=O)NC(c1ccccc1)c1ccccc1 (centres undefined) | > 100 | > 100 | > 100 | > 100 | > 100 | > 100 | > 100 | > 100 | > 100 | > 100 | > 100 | > 100 | > 100 | > 100 | > 100 | > 100 | > 100 | > 100 | > 100
11 | Cc1ccc(S(=O)(=O)N2CCNCCN(S(=O)(=O)c3ccc(C)cc3)CCNCC2)cc1 | 71.8 | > 100 | 47 | 25.6 | 28.5 | – | 41.9 | 33.4 | > 100 | > 100 | 33.7 | > 100 | 36.5 | 30.2 | 25.4 | 34.7 | 55 | > 100 | 46.7
12 | CCOC(=O)c1c[nH]c(C(=O)C=[N+]=[N-])c1C1CCN(CC)C1=S (centres undefined) | > 100 | > 100 | > 100 | – | > 100 | > 100 | > 100 | > 100 | > 100 | > 100 | > 100 | > 100 | > 100 | > 100 | – | > 100 | > 100 | > 100 | > 100
13 | O=[N+]([O-])c1cccc2nccc(NCCN3CCOCC3)c12 | > 100 | > 100 | 29.3 | 46.6 | 30.5 | > 56.5 | 42.6 | 26.4 | > 65.1 | 43.3 | > 57.5 | 38.4 | 22 | 44.4 | > 34.6 | 34 | > 66.7 | 33.7 | > 100
